According to patent US20230227466A1, “SUBSTITUTED THIENOPYRIMIDINES THAT INTERACT WITH THE RAS SUPERFAMILY FOR THE TREATMENT OF CANCERS, INFLAMMATORY DISEASES, RASOPATHIES, AND FIBROTIC DISEASE” (SHY Therapeutics, LLC, priority 2020, published 2023):
Read-outs that look alike come from different tables or passages of the source.

Key:
[1] = test system: Akt phosphorylation in Panc-1 cells; assay: Western AKT cell-based phosphorylation assay; set-up: species or system human; conditions: at 10 μM, values in brackets < > are activation %, not inhibition
Procedure, shortened: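 Panc-1 cells starved overnight in 0.5% FBS, exposed to compound at 10 μM (0.3% DMSO) for 6 h at 37° C, then stimulated with 1.5 ng/ml EGF for 15 min. Lysates probed by western blot with anti-phospho-Akt (Ser473), equal protein loading checked by Ponceau S.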

[2] = target: T1, KRas G12C mutant (Homo sapiens, UniProt P01116, G12C); assay: Ras GTP binding domain inhibition assay (labeled-GTP competition, cell-free)
T1 construct: made in house
Procedure, shortened: (§1)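 His-tagged GTPases were coated at 10-30 μg/mL onto nickel plates overnight at 4° C, then exposed to compound (20 μM, or serial dilutions for IC50) in buffer with 1% DMSO for 3 h at room temperature, with or without 10-30 μg/mL His-Sos (556-1049) in the final hour. Cy3- or Cy5-GTP (100 nM, 45 min) binding was measured after washing.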

[3] = target: T2, KRas Q61H mutant (Homo sapiens, UniProt P01116, Q61H); assay: as above
T2 construct: made in house
Procedure, shortened: as §1

[4] = target: T3, KRas G12D mutant (Homo sapiens, UniProt P01116, G12D); assay: as above
T3 construct: made in house
Procedure, shortened: as §1

[5] = with SOS, read-out: KRas G12C mutant + SOS: % inh.
[6] = without SOS, read-out: KRas G12C mutant: % inh.
[7] = with SOS, read-out: KRas Q61H mutant + SOS: % inh.
[8] = without SOS, read-out: KRas Q61H mutant: % inh.
[9] = with SOS, read-out: KRas G12D mutant + SOS: % inh.
[10] = without SOS, read-out: KRas G12D mutant: % inh.

| SMILES | inhibition at 20 µM [2, 5] [%] | inhibition at 20 µM [2, 6] [%] | inhibition at 20 µM [3, 7] [%] | inhibition at 20 µM [3, 8] [%] | IC50 ([3]; with SOS) [µM] | inhibition at 20 µM [4, 9] [%] | inhibition at 20 µM [4, 10] [%] | % inh of AKT phosphorylation in PANC-1 [1] |
| --- | --- | --- | --- | --- | --- | --- | --- | --- |
| COCCn1ccnc1-c1nc(N[C@@H]2CC[C@H](OC)C2)c2c(-c3ccccc3)c(-c3ccn(C)n3)sc2n1 (racemic) [Compound 6, Rac-N-((1R,3S)-3-methoxycyclopentyl)-2-(1-(2-methoxyethyl)-1H-imidazol-2-yl)-6-(1-methyl-1H-pyrazol-3-yl)-5-phenylthieno[2,3-d]pyrimidin-4-amine] | 76 to 100 | 76 to 100 | 76 to 100 | 76 to 100 | 1 to 4.99 | 76 to 100 | 76 to 100 | 0 (0% inhibition) |
| COCC1CCN(c2nc(-c3nccn3C)nc3sc(-c4ccn(C(C)C)n4)c(C)c23)C1 (racemic) [Compound 38, rac-6-(1-Isopropyl-1H-pyrazol-3-yl)-4-(3-(methoxymethyl)pyrrolidin-1-yl)-5-methyl-2-(1-methyl-1H-imidazol-2-yl)thieno[2,3-d]pyrimidine] | 76 to 100 | 51 to 75 | 76 to 100 | 76 to 100 |  | 76 to 100 | 51 to 75 | B (26-50% inhibition) |
| CO[C@H]1CC[C@@H](Nc2nc(-c3nccn3C)nc3sc(-c4ccn(C(C)C)n4)c(C)c23)CC1 [Compound 55] | 26 to 50 | 26 to 50 | 26 to 50 | 1 to 25 |  | 26 to 50 | 51 to 75 | <A> |
| Cc1c(-c2ccn(C(C)C)n2)sc2nc(-c3nccn3C)nc(NCCc3ncc[nH]3)c12 [Compound 53, N-(2-(1H-Imidazol-2-yl)ethyl)-6-(1-isopropyl-1H-pyrazol-3-yl)-5-methyl-2-(1-methyl-1H-imidazol-2-yl)thieno[2,3-d]pyrimidin-4-amine] | 26 to 50 | 26 to 50 | 26 to 50 | 26 to 50 |  | 26 to 50 | 1 to 25 | 0 (0% inhibition) |
| CO[C@H]1CC[C@@H](Nc2nc(C(=O)N3CCOCC3)nc3sccc23)C1 (racemic) [Compound 12, Rac-(4-(((1R,3S)-3-methoxycyclopentyl)amino)thieno[2,3-d]pyrimidin-2-yl)(morpholino)methanone] | 1 to 25 | 1 to 25 | 0 | 1 to 25 | > 10 | 0 | 1 to 25 | 0 (0% inhibition) |
| COCCCNc1nc(-c2nccn2C)nc2sc(-c3ccn(C(C)C)n3)c(C)c12 [Compound 36, 6-(1-Isopropyl-1H-pyrazol-3-yl)-N-(3-methoxypropyl)-5-methyl-2-(1-methyl-1H-imidazol-2-yl)thieno[2,3-d]pyrimidin-4-amine] | 76 to 100 | 76 to 100 | 76 to 100 | 76 to 100 |  | 76 to 100 | 51 to 75 | 0 (0% inhibition) |
| CO[C@H]1C[C@@H](Nc2nc(-c3nccn3C)nc3sc(-c4ccn(C(C)C)n4)c(C)c23)C[C@H]1OC [Compound 42, N-((1r,3R,4S)-3,4-Dimethoxycyclopentyl)-6-(1-isopropyl-1H-pyrazol-3-yl)-5-methyl-2-(1-methyl-1H-imidazol-2-yl)thieno[2,3-d]pyrimidin-4-amine] | 76 to 100 | 76 to 100 | 76 to 100 | 76 to 100 |  | 51 to 75 | 76 to 100 | <D> |
| CO[C@H]1CC[C@@H](Nc2nc(-c3nccn3C)nc3sc(-c4ccn(C(C)C)n4)c(-c4ccccc4)c23)C1 [Compound 5, 6-(1-Isopropyl-1H-pyrazol-3-yl)-N-((1R,3S)-3-methoxycyclopentyl)-2-(1-methyl-1H-imidazol-2-yl)-5-phenylthieno[2,3-d]pyrimidin-4-amine] | 76 to 100 | 51 to 75 | 76 to 100 | 26 to 50 | 1 to 4.99 | 51 to 75 | 1 to 25 | D (76-100% inhibition) |
| Cc1c(-c2ccn(C(C)C)n2)sc2nc(-c3nccn3C)nc(NCCc3nnn[nH]3)c12 [Compound 46, N-(2-(1H-Tetrazol-5-yl)ethyl)-6-(1-isopropyl-1H-pyrazol-3-yl)-5-methyl-2-(1-methyl-1H-imidazol-2-yl)thieno[2,3-d]pyrimidin-4-amine] | 51 to 75 | 51 to 75 | 76 to 100 | 76 to 100 |  | 76 to 100 | 26 to 50 | A (1-25% inhibition) |
| CO[C@@H]1CC[C@H](Nc2nc(-c3nccn3C)nc3sc(-c4ccn(C(C)C)n4)c(C)c23)C1 [Compound 31, 6-(1-Isopropyl-1H-pyrazol-3-yl)-N-((1S,3R)-3-methoxycyclopentyl)-5-methyl-2-(1-methyl-1H-imidazol-2-yl)thieno[2,3-d]pyrimidin-4-amine] | 76 to 100 | 51 to 75 | 76 to 100 | 26 to 50 | 1 to 4.99 | 76 to 100 | 26 to 50 | 0 (0% inhibition) |

Continued, in another order:

| inhibition at 20 µM [2, 5] [%] | inhibition at 20 µM [2, 6] [%] | inhibition at 20 µM [3, 7] [%] | inhibition at 20 µM [3, 8] [%] | IC50 ([3]; with SOS) [µM] | inhibition at 20 µM [4, 9] [%] | inhibition at 20 µM [4, 10] [%] | SMILES | % inh of AKT phosphorylation in PANC-1 [1] |
| --- | --- | --- | --- | --- | --- | --- | --- | --- |
| 26 to 50 | 26 to 50 | 26 to 50 | 51 to 75 |  | 51 to 75 | 76 to 100 | COc1cc(Nc2nc(-c3nccn3C)nc3sc(-c4ccn(C(C)C)n4)c(C)c23)ncn1 [Compound 66, 6-(1-Isopropyl-1H-pyrazol-3-yl)-N-(6-methoxypyrimidin-4-yl)-5-methyl-2-(1-methyl-1H-imidazol-2-yl)thieno[2,3-d]pyrimidin-4-amine] | B (26-50% inhibition) |
| 51 to 75 | 51 to 75 | 51 to 75 | 76 to 100 |  | 51 to 75 | 76 to 100 | COCCn1cnc(-c2nc(O)c3scc(-c4ccccn4)c3n2)c1 [Compound 78, 2-(1-(2-Methoxyethyl)-1H-imidazol-4-yl)-7-(pyridin-2-yl)thieno[3,2-d]pyrimidin-4-ol] | 0 (0% inhibition) |
| 0 | 26 to 50 | 26 to 50 | 1 to 25 |  | 26 to 50 | 51 to 75 | COC1CCCN(c2nc(-c3nccn3C)nc3sc(-c4ccn(C(C)C)n4)c(-c4ccccc4)c23)C1 (racemic) [Compound 77, Rac-6-(1-isopropyl-1H-pyrazol-3-yl)-4-(3-methoxypiperidin-1-yl)-2-(1-methyl-1H-imidazol-2-yl)-5-phenylthieno[2,3-d]pyrimidine] | <A> |
| 51 to 75 | 51 to 75 | 51 to 75 | 51 to 75 |  | 76 to 100 | 51 to 75 | Oc1nc(-c2nccn2CCOCC(F)(F)F)nc2c(-c3ccccn3)csc12 [Compound 81, 7-(Pyridin-2-yl)-2-(1-(2-(2,2,2-trifluoroethoxy)ethyl)-1H-imidazol-2-yl)thieno[3,2-d]pyrimidin-4-ol] | <D> |
| 51 to 75 | 1 to 25 | 51 to 75 | 26 to 50 |  | 51 to 75 | 51 to 75 | Oc1nc(-c2nccn2CCOCc2ccccc2)nc2c(-c3ccccn3)csc12 [Compound 83, 2-(1-(2-(Benzyloxy)ethyl)-1H-imidazol-2-yl)-7-(pyridin-2-yl)thieno[3,2-d]pyrimidin-4-ol] | <D> |
| 76 to 100 | 76 to 100 | 51 to 75 | 51 to 75 |  | 51 to 75 | 26 to 50 | Cc1c(-c2ccn(C(C)C)n2)sc2nc(-c3nccn3C)nc(NCCc3cn(C)cn3)c12 [Compound 58, 6-(1-Isopropyl-1H-pyrazol-3-yl)-5-methyl-2-(1-methyl-1H-imidazol-2-yl)-N-(2-(1-methyl-1H-imidazol-4-yl)ethyl)thieno[2,3-d]pyrimidin-4-amine] | 0 (0% inhibition) |
| 26 to 50 | 51 to 75 | 26 to 50 | 26 to 50 |  | 26 to 50 | 26 to 50 | COC1CCCN(c2nc(-c3ccccn3)nc3sc(-c4ccn(C(C)C)n4)c(C)c23)C1 (racemic) [Compound 70, Rac-6-(1-Isopropyl-1H-pyrazol-3-yl)-4-(3-methoxypiperidin-1-yl)-5-methyl-2-(pyridin-2-yl)thieno[2,3-d]pyrimidine] | 0 (0% inhibition) |
